Patent US20080114055A1, “Thioxanthone Compounds to Reverse Weight Loss” (ZOLTAN LABORATORIES LLC, priority 2006, published 2008)

Experiments:
[1] = tested on: PC-3 human prostate tumor; test: PC-3 human prostate cancer model: body, total and tumor weight; type: in vivo, mice; details: for Body weight: total minus tumor weight
From the text: Tumors were developed in a homozygous line of C.B.-171 cr scid/scid adult female mice kept at specified pathogen free (SPF) hygienic levels. Suspensions of HL-60 human leukemia cells (about 1,500,000 cells), or approximately 0.1 cm^3 volume of tumor tissue derived from HT-168 human melanoma, PC-3 human prostate adenocarcinoma, or T47D human breast carcinoma were implanted subcutaneously to develop the tumors. After 12-18 days when the tumor-bearing mice were first treated, the size of the tumors was in the 0.2-0.4 cm^3 range. CCcompound1 was dissolved in physiological (0.9%) saline (NaCl) and applied subcutaneously in 50 μl volume. Tumor volume was determined by calipers in three dimensions; this technique is well known to one having ordinary skill in the art. Tumor volume was calculated according to the generally accepted formula: V=a^2×b×π/6, where “a” and “b” mean the shortest and longest diameter, respectively, of the measured tumor. Tumor weight was calculated from tumor volume using a 0.7 (tumor weight) : 1 (tumor volume) ratio. Total weight and tumor volume/weight was measured regularly (at least every second day). In all tumor experiments, each treatment group consisted of five animals. Accordingly, all data are the average of five independent determinations (one determination for each animal). PC-3 human tumors were developed in mice as described above. Treatments with CCcompound1 were started on day 12 after tumor implantation and conducted for five days and then for another three days with two treatment-free days inserted between the two series of treatments. The results, shown in TABLE 4, indicate that between day 12 and 21 after tumor implantation, the prostate tumor caused about 5.7-g loss in body weight which corresponds to about 22% reduction.

Water solubility = type: physicochemical; details: at the concentration used in vivo
[2] = tested on: HT-168 human melanoma tumor; test: HT-168 human melanoma model: body, total and tumor weight; type: in vivo, mice; details: for Body weight: total minus tumor weight
From the text: Tumors were developed in a homozygous line of C.B.-171 cr scid/scid adult female mice kept at specified pathogen free (SPF) hygienic levels. Suspensions of HL-60 human leukemia cells (about 1,500,000 cells), or approximately 0.1 cm^3 volume of tumor tissue derived from HT-168 human melanoma, PC-3 human prostate adenocarcinoma, or T47D human breast carcinoma were implanted subcutaneously to develop the tumors. After 12-18 days when the tumor-bearing mice were first treated, the size of the tumors was in the 0.2-0.4 cm^3 range. CCcompound1 was dissolved in physiological (0.9%) saline (NaCl) and applied subcutaneously in 50 μl volume. Tumor volume was determined by calipers in three dimensions; this technique is well known to one having ordinary skill in the art. Tumor volume was calculated according to the generally accepted formula: V=a^2×b×π/6, where “a” and “b” mean the shortest and longest diameter, respectively, of the measured tumor. Tumor weight was calculated from tumor volume using a 0.7 (tumor weight) : 1 (tumor volume) ratio. Total weight and tumor volume/weight was measured regularly (at least every second day). In all tumor experiments, each treatment group consisted of five animals. Accordingly, all data are the average of five independent determinations (one determination for each animal). HT-168 human tumors were developed in mice as described above. Treatments with CCcompound1 were started on day 17 after tumor implantation and conducted for the first five days and then for another five days with two treatment-free days inserted between the two series of treatments. The results, shown in TABLE 3, indicate that between day 17 and 30 after tumor implantation, the melanoma tumor caused a 2.7-g loss in body weight.

[3] = 1.0 mg/kg s.c., day 12 (treatment start)
[4] = 2.0 mg/kg s.c., day 12 (treatment start)
[5] = 4.0 mg/kg s.c., day 12 (treatment start)
[6] = 1.0 mg/kg s.c., day 17 (treatment start)
[7] = 2.0 mg/kg s.c., day 17 (treatment start)
[8] = 4.0 mg/kg s.c., day 17 (treatment start)

## Cc1c(OCC(O)C[N+](C)(C)C)cc2c(=O)c3ccccc3sc2c1C.[Cl-] (stereo not shown) [CCcompound1, [3-(3,4-Dimethyl-9-oxo-9H-thioxanthen-2-yloxy)-2-hydroxypropyl]trimethyl-ammonium chloride]
[1]; [3]
  Tumor weight: 0.4 g
  Body weight: 25.9 g
[1]; 1.0 mg/kg s.c., day 12 after tumor transplantation (treatment start)
  Total weight: 26.3 g
[1]; 1.0 mg/kg s.c., day 21
  Tumor weight: 2.2 g
  Body weight: 23.1 g
[1]; 1.0 mg/kg s.c., day 21 after tumor transplantation
  Total weight: 25.3 g
[1]; [4]
  Total weight: 26.1 g
  Tumor weight: 0.4 g
  Body weight: 25.7 g
[1]; 2.0 mg/kg s.c., day 21
  Total weight: 28.4 g
  Tumor weight: 1.9 g
  Body weight: 26.5 g
[1]; [5]
  Total weight: 26.9 g
  Tumor weight: 0.2 g
  Body weight: 26.7 g
[1]; 4.0 mg/kg s.c., day 21
  Total weight: 32.4 g
  Tumor weight: 1.4 g
  Body weight: 31.0 g
[1]; 1-mg/kg, between day 12 and 21
  Effect on body weight loss: only partially prevented body weight loss
[1]; 4-mg/kg, between day 12 and 21
  Body weight gain: 4.3 g
[1]; 4-mg/kg, day 21
  Reduction of tumor weight: about 48%
Water solubility
  Water solubility: fully water-soluble
[2]; [6]
  Tumor weight: 0.2 g
  Body weight: 23.8 g
[2]; 1.0 mg/kg s.c., day 17 after tumor transplantation (treatment start)
  Total weight: 24.0 g
[2]; 1.0 mg/kg s.c., day 30
  Tumor weight: 2.1 g
  Body weight: 25.5 g
[2]; 1.0 mg/kg s.c., day 30 after tumor transplantation
  Total weight: 27.6 g
[2]; [7]
  Total weight: 23.1 g
  Tumor weight: 0.2 g
  Body weight: 22.9 g
[2]; 2.0 mg/kg s.c., day 30
  Total weight: 25.8 g
  Tumor weight: 1.8 g
  Body weight: 24.0 g
[2]; [8]
  Total weight: 23.8 g
  Tumor weight: 0.2 g
  Body weight: 23.6 g
[2]; 4.0 mg/kg s.c., day 30
  Total weight: 29.6 g
  Tumor weight: 1.2 g
  Body weight: 28.4 g
[2]; 1-mg/kg, between day 17 and 30
  Effect on body weight loss: sufficient to reverse body weight loss
[2]; 4-mg/kg, between day 17 and 30
  Body weight gain: ~5 g
[2]; 4-mg/kg, day 30
  Reduction of tumor weight: more than 50%
